According to paper PMC6893700 (Viruses, 2019):
Like-named read-outs stand apart in the source and are kept apart here.

How the values were obtained:
Vero E6 cells [1] = experiment: Initial screening: cytotoxicity observed under a microscope; settings: initial screening at 20 µM
DENV-2-V594 = experiment: Plaque reduction inhibition assay, DENV-2 in LLC-MK2 cells; format: cell-based; settings: Dengue virus, DENV2
DENV-1-V1792 = experiment: Plaque reduction inhibition assay, DENV-1 in LLC-MK2 cells; format: cell-based; settings: Dengue virus, DENV1
[2] = tested on: ZIKV rhesus macaque strain MR 766; experiment: Plaque reduction inhibition assay, ZIKV MR 766 in Vero E6 cells; format: cell-based; settings: Zika virus, Vero C1008, in Macaca mulatta, read-out: IC50 MR 766
ZIKV strain PAN2016 [3] = format: cell-based, Zika virus (ZIKV); settings: for IC50: Zika virus
[4] = target: ZIKV full-length E protein (Zika virus, UniProt A0A024B7W1); format: binding; settings: ELISA
ZIKV strain FLR [5] = format: cell-based, Zika virus (ZIKV); settings: for IC50: Zika virus
[6] = tested on: ZIKV mosquito strain MEX 2–81; experiment: Plaque reduction inhibition assay, ZIKV MEX 2–81 in Vero E6 cells; format: cell-based; settings: Zika virus
[7] = Combinatorial cytotoxicity of gossypol with other natural products, CCK8; settings: African green monkey
Vero E6 cells [8] = experiment: as above; settings: Vero E6; for Fold of Enhancement of cytotoxicity (natural product with gossypol): (CC50 alone)/(CC50 in the mixture)—1
ZIKV strain PRVABC59 [9] = experiment: Plaque reduction inhibition assay, ZIKV PRVABC59 in Vero E6 cells; format: cell-based; settings: Zika virus
DENV-3-V1043 = experiment: Plaque reduction inhibition assay, DENV-3 in LLC-MK2 cells; format: cell-based; settings: Dengue virus, DENV3
DENV-4-PR 06-65-740 = experiment: Plaque reduction inhibition assay, DENV-4 in LLC-MK2 cells; format: cell-based; settings: Dengue virus, DENV4
ZIKV strain PRVABC59 [10] = format: cell-based, Zika virus (ZIKV)
in vitro [11] = settings: rhesus monkey
ZIKV strain PAN2016 [12] = experiment: Plaque reduction inhibition assay, ZIKV PAN2016 in Vero E6 cells; format: cell-based; settings: Zika virus
ZIKV strain R103451 = experiment: Plaque reduction inhibition assay, ZIKV R103451 in Vero E6 cells; format: cell-based; settings: Zika virus
ZIKV strain FLR [13] = experiment: Plaque reduction inhibition assay, ZIKV FLR in Vero E6 cells; format: cell-based; settings: Zika virus
in vitro [14] = settings: African green monkey
ZIKV strain PLCal_ZV = experiment: Plaque reduction inhibition assay, ZIKV PLCal_ZV in Vero E6 cells; format: cell-based; settings: Zika virus
ZIKV strain PAN2015 = experiment: Plaque reduction inhibition assay, ZIKV PAN2015 in Vero E6 cells; format: cell-based; settings: Zika virus, Vero C1008
ZIKV (PAN2016) = experiment: Time-of-addition experiment, ZIKV PAN2016 in Vero E6 cells; format: cell-based, Zika virus (ZIKV); settings: for inhibition at 7.5 µM: Zika virus, Vero C1008, 1 h; for inhibition of ZIKV infection, step a: pretreatment of ZIKV: natural product with ZIKV 37 °C 1 h before cells
ZIKV strain R116265 = experiment: Plaque reduction inhibition assay, ZIKV R116265 in Vero E6 cells; format: cell-based; settings: Zika virus, Vero C1008
[15] = target: T1, ZIKV envelope protein domain III (EDIII) protein (Zika virus, UniProt A0A024B7W1); format: binding; settings: ELISA
T1 construct: E residues 298–409 fused with a C-terminal human Fc; made in house

[16] = target: binding between ZIKV EDIII protein and EDIII-specific human mAbs (Zika virus, UniProt A0A024B7W1); settings: ELISA; no binding between ZKA78 and EDIII
nine ZIKV strains = experiment: Plaque reduction inhibition assay, nine additional ZIKV strains (summary); format: cell-based; settings: Zika virus, Vero C1008; range over nine additional ZIKV strains, Vero E6 cells; read-out: IC50 values against all nine ZIKV strains tested
ZIKV strain IbH 30656 = experiment: Plaque reduction inhibition assay, ZIKV IbH 30656 in Vero E6 cells; format: cell-based; settings: Zika virus, Vero C1008, read-out: IC50 IbH 30656
in vitro [17] = settings: African green monkey; remark: listed apart in the source
[18] = gossypol 15 µM, curcumin 30 µM, digitonin 7.5 µM, conessine 30 µM
[19] = Vero C1008, read-out: IC50 Alone

ZIKV full-length E protein, sequence (A0A024B7W1 291-794): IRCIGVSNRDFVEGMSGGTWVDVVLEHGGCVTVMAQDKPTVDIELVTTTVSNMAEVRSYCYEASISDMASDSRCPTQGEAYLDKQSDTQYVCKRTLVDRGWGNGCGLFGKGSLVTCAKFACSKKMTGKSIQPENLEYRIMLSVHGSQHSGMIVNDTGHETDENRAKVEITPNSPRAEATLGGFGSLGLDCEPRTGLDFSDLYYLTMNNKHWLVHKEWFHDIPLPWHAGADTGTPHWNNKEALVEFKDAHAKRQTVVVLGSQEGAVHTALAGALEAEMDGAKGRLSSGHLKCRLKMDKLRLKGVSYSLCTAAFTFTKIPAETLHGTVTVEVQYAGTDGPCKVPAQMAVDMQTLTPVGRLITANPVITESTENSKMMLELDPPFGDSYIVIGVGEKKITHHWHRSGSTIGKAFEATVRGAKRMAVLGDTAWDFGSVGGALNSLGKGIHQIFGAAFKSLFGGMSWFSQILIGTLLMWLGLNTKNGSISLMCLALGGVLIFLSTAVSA
binding between ZIKV EDIII protein and EDIII-specific human mAbs, sequence (A0A024B7W1 588-699): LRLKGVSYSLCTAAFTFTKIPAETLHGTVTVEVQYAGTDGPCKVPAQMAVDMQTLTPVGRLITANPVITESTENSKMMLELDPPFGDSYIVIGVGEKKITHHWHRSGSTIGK
T1 sequence (A0A024B7W1 588-699): as above

## C[C@@H]1CC[C@@]2(OC1)O[C@H]1[C@@H](O)[C@H]3[C@@H]4CC[C@H]5C[C@@H](O[C@@H]6O[C@H](CO)[C@H](O[C@@H]7O[C@H](CO)[C@@H](O)[C@H](O[C@@H]8OC[C@@H](O)[C@H](O)[C@H]8O)[C@H]7O[C@@H]7O[C@H](CO)[C@H](O)[C@H](O[C@@H]8O[C@H](CO)[C@@H](O)[C@H](O)[C@H]8O)[C@H]7O)[C@H](O)[C@H]6O)[C@H](O)C[C@]5(C)[C@H]4CC[C@]3(C)[C@H]1[C@@H]2C [Digitonin, digitonin]
Vero E6 cells [1]
  cytotoxicity in Vero E6 cells observed under a microscope: no obvious cytotoxicity
DENV-2-V594
  IC50: 6.56 ± 0.21 µM
DENV-1-V1792
  IC50: 5.21 ± 0.35 µM
[2]; plaque reduction, Vero E6 cells
  IC50: 3.77 ± 0.31 µM
ZIKV strain PAN2016 [3]; ZIKV PAN2016, (IC50 alone)/(IC50 in the mixture)—1
  Fold of Enhancement (natural product with gossypol): 2.21
ZIKV strain PAN2016 [3]; ZIKV PAN2016, CI < 1 synergy
  CI (combination index) of gossypol with the named natural product: 0.60
ZIKV strain PAN2016 [3]; Vero C1008, ZIKV PAN2016, Vero E6, natural product without combination, read-out: IC50 Alone
  IC50: 4.85 ± 0.24 µM
[4]
  binding to ZIKV full-length E protein (in words): did not bind
ZIKV strain FLR [5]; ZIKV FLR, CI < 1 synergy
  CI (combination index) of gossypol with the named natural product: 0.95
ZIKV strain FLR [5]; Vero C1008, ZIKV FLR, Vero E6, natural product without combination, read-out: IC50 Alone
  IC50: 3.86 ± 0.02 µM
[6]; Vero C1008, plaque reduction, Vero E6 cells, read-out: IC50 MEX 2–81
  IC50: 3.84 ± 0.12 µM
[7]
  CC50 at 3 days: 50.63 ± 0.22 µM
Vero E6 cells [8]
  Fold of Enhancement of cytotoxicity (natural product with gossypol): 2.60
Vero E6 cells [8]; listed as digitonin
  Fold of Enhancement of cytotoxicity (natural product with gossypol): about 2.60
Vero E6 cells [8]; based on CC50
  CI (combination index, cytotoxicity) of gossypol with the named natural product: 1.36
ZIKV strain PRVABC59 [9]; Vero C1008, plaque reduction, Vero E6 cells
  IC50: 3.76 ± 1.12 µM
DENV-3-V1043
  IC50: 4.07 ± 0.83 µM
DENV-4-PR 06-65-740
  IC50: 6.44 ± 0.34 µM
ZIKV strain PRVABC59 [10]; ZIKV PRVABC59, (IC50 alone)/(IC50 in the mixture)—1
  Fold of Enhancement (natural product with gossypol): 5.98
ZIKV strain PRVABC59 [10]; ZIKV PRVABC59, CI < 1 synergy
  CI (combination index) of gossypol with the named natural product: 0.29
ZIKV strain PRVABC59 [10]; Zika virus, Vero C1008, ZIKV PRVABC59, Vero E6, natural product without combination, read-out: IC50 Alone
  IC50: 3.84 ± 0.81 µM
In vitro [11]
  CC50 at 3 days: 59.02 ± 0.33 µM
ZIKV strain PAN2016 [12]; Vero C1008, 90% plaque reduction, Vero E6 cells, read-out: IC90 against ZIKV PAN2016 strain
  IC90: ~7.91 µM
ZIKV strain PAN2016 [12]; Vero C1008, plaque reduction, Vero E6 cells, read-out: IC50 PAN2016
  IC50: 4.31 ± 0.23 µM
ZIKV strain R103451; Vero C1008, plaque reduction, Vero E6 cells, read-out: IC50 R103451
  IC50: 4.3 ± 0.43 µM
ZIKV strain FLR [13]; Vero C1008, plaque reduction, Vero E6 cells, read-out: IC50 FLR
  IC50: 3.34 ± 0.22 µM
In vitro [14]
  CC50 at 3 days: 56.3 ± 1.2 µM
ZIKV strain PLCal_ZV; Vero C1008, plaque reduction, Vero E6 cells, read-out: IC50 PLCal_ZV
  IC50: 3.19 ± 0.25 µM
ZIKV strain PAN2015
  IC50: 5 ± 0.01 µM
ZIKV (PAN2016); read-out: inhibition of ZIKV infection, step c: cotreatment at 4 °C (attachment)
  inhibition at 7.5 µM: 49 to 74%
ZIKV (PAN2016); read-out: inhibition of ZIKV infection, step d: cotreatment at 37 °C
  inhibition at 7.5 µM: ≥ 94%
ZIKV (PAN2016); read-out: inhibition of ZIKV infection, step e: penetration (membrane fusion)
  inhibition at 7.5 µM: 49 to 74%
ZIKV (PAN2016); read-out: inhibition of ZIKV infection, step f: postentry stage
  inhibition at 7.5 µM: 49 to 74%
ZIKV (PAN2016); [18]
  inhibition of ZIKV infection, step a: pretreatment of ZIKV: no effect
ZIKV strain R116265
  IC50: 6.52 ± 0.59 µM
[15]
  binding to ZIKV EDIII protein (in words): did not bind

## Cc1cc2c(C(C)C)c(O)c(O)c(C=O)c2c(O)c1-c1c(C)cc2c(C(C)C)c(O)c(O)c(C=O)c2c1O [Gossypol, gossypol]
[16]
  inhibition with control mAb ZKA78 (EDI/DII-specific): no obvious inhibition
Vero E6 cells [1]
  cytotoxicity in Vero E6 cells observed under a microscope: no obvious cytotoxicity
Nine ZIKV strains
  IC50: 0.21 to 4.31 µM
DENV-2-V594
  IC50: 1.89 ± 0.21 µM
DENV-1-V1792
  IC50: 1.87 ± 0.01 µM
[2]
  IC50: 3.75 ± 0.01 µM
ZIKV strain PAN2016 [3]; [19]
  IC50: 3.79 ± 0.01 µM
ZIKV strain FLR [5]; [19]
  IC50: 0.26 ± 0.01 µM
[6]; Vero C1008, read-out: IC50 MEX 2–81
  IC50: 2.79 ± 0.01 µM
ZIKV strain PRVABC59 [9]; Vero C1008, read-out: IC90 against ZIKV strain PRVABC59
  IC90: ~8.81 µM
DENV-3-V1043
  IC50: 3.7 ± 0.59 µM
DENV-4-PR 06-65-740
  IC50: 2.6 ± 0.12 µM
In vitro [11]
  CC50 at 3 days: 14.5 ± 0.59 µM
ZIKV strain PAN2016 [12]; Vero C1008, read-out: IC50 PAN2016
  IC50: 3.48 ± 0.03 µM
ZIKV strain PAN2016 [12]; Vero C1008, read-out: IC90 against ZIKV PAN2016 strain
  IC90: ~6.91 µM
ZIKV strain R103451; Vero C1008, read-out: IC50 R103451
  IC50: 2.28 ± 0.1 µM
ZIKV strain FLR [13]; Vero C1008, read-out: IC50 FLR
  IC50: 0.21 ± 0.01 µM
In vitro [14]
  CC50 at 3 days: 14.2 ± 0.74 µM
ZIKV strain IbH 30656
  IC50: 3.31 ± 0.11 µM
In vitro [17]
  CC50 at 3 days: 14.8 ± 0.42 µM
ZIKV strain PLCal_ZV; Vero C1008, read-out: IC50 PLCal_ZV
  IC50: 1.98 ± 0.07 µM
ZIKV (PAN2016); cells with ZIKV 4 °C 1 h, then natural product 37 °C 1 h, gossypol 15 µM, curcumin 30 µM, digitonin 7.5 µM, conessine 30 µM
  inhibition of ZIKV infection, step e: penetration (membrane fusion): maintained its infectivity
ZIKV (PAN2016); cells with ZIKV 37 °C 1 h, then natural product 37 °C 1 h, gossypol 15 µM, curcumin 30 µM, digitonin 7.5 µM, conessine 30 µM
  inhibition of ZIKV infection, step f: postentry stage: maintained its infectivity
ZIKV (PAN2016); cells with natural product 37 °C 1 h before ZIKV, gossypol 15 µM, curcumin 30 µM, digitonin 7.5 µM, conessine 30 µM
  inhibition of ZIKV infection, step b: pretreatment of cells: maintained its infectivity
ZIKV (PAN2016); cells, ZIKV and natural product 4 °C 1 h, gossypol 15 µM, curcumin 30 µM, digitonin 7.5 µM, conessine 30 µM
  inhibition of ZIKV infection, step c: cotreatment at 4 °C (attachment): maintained its infectivity
ZIKV (PAN2016); cells, ZIKV and natural product 37 °C 1 h, gossypol 15 µM, curcumin 30 µM, digitonin 7.5 µM, conessine 30 µM
  inhibition of ZIKV infection, step d: cotreatment at 37 °C: maintained its infectivity
ZIKV (PAN2016); [18]
  inhibition of ZIKV infection, step a: pretreatment of ZIKV: completely lost its infectivity
